Laboratory results taken from PMC6707612, “Cyclic-di-GMP binds to histidine kinase RavS to control RavS-RavR phosphotransfer and regulates the bacterial lifestyle transition between virulence and swimming” (PLoS Pathogens, 2019).

Target: T1, RavR^ΔEAL (Xanthomonas campestris pv. campestris, UniProt Q8P9A7)
T1 sequence (Q8P9A7 with tags, fused parts or gaps): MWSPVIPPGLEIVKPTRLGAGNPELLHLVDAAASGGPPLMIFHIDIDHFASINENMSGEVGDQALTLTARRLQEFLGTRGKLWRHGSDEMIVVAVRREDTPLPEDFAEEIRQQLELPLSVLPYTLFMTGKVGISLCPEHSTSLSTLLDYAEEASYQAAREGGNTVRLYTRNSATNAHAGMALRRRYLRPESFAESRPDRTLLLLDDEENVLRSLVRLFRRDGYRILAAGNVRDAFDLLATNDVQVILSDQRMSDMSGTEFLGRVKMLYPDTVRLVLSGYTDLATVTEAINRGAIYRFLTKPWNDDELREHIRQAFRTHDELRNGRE
Experiment: microscale thermophoresis (MST) binding
Details: 20 nM fluorescein-labelled nucleotide

Nc1nc2c(ncn2[C@@H]2O[C@@H]3COP(=O)(O)O[C@H]4[C@@H](O)[C@H](n5cnc6c(=O)[nH]c(N)nc65)O[C@@H]4COP(=O)(O)O[C@H]3[C@H]2O)c(=O)[nH]1 [c-di-GMP, Cyclic di-GMP]
dissociation constant (Kd): did not bind
